Key:
[1] = target: T1, recombinant human ALK5 (TGF-βR1) protein (Homo sapiens, UniProt P36897); experiment: Biochemical ALK5 (TGF-βR1) assay to measure pKi (LANCE Ultra ULight kinase assay); conditions: apparent pKi, converted from pIC50 by Cheng-Prusoff
T1 construct: purchased Life Technologies PR9075A
T1 sequence (P36897 34-503): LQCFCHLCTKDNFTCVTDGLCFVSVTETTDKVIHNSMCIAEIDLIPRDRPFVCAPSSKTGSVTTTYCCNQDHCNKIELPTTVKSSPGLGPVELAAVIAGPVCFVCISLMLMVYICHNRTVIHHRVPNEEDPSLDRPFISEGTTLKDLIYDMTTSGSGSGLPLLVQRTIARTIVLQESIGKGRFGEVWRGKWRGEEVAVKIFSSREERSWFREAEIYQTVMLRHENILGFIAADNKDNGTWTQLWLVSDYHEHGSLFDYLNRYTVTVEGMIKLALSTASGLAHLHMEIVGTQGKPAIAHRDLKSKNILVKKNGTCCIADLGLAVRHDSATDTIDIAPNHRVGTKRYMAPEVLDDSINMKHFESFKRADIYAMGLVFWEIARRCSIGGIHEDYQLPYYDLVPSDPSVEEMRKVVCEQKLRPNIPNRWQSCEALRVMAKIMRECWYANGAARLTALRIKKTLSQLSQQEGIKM
In short: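 Cmpd + enzyme, 60 min RT; ATP from 125 μM (5×) stock, 60 min 37 °C; stop 12 mM EDTA/Eu anti-pThr1342 Topo2α Ab (pH 7.0 buffer); TR-FRET 665 nm. DMSO = max, SD-208 = min signal. 4-PL pIC50 → pKi (Cheng-Prusoff).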

[2] = system: TGF-β-stimulated SMAD3 phosphorylation in BEAS-2B cells; experiment: Cellular ALK5 potency assay, inhibition of TGF-β stimulated pSMAD3 formation in BEAS-2B cells; assay type: cell-based; conditions: Homo sapiens, pSMAD3, TGF-β 10 ng/mL, read-out: BEAS2B pIC50 (converted)
In short: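 Cells were seeded overnight, rinsed into HEPES/BSA-supplemented HBSS, and dosed with serially diluted compound for 1 h at 37 °C, 5% CO2. TGF-β stimulation (10 ng/mL final) followed for 30 min, then lysis and AlphaLISA pSMAD3 measurement; potency reported as pIC50.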

Structure (SMILES) | Ki [1] [nM] | IC50 [2] [nM]
Cc1cccc(-c2nccc(Nc3ccnc(Nc4ccc(N5CCC(C(=O)OCC6CNC6)CC5)cc4)n3)n2)n1 [Compound 368, azetidin-3-ylmethyl 1-[4-[[4-[[2-(6-methyl-2-pyridyl)pyrimidin-4-yl]amino]pyrimidin-2-yl]amino]phenyl]piperidine-4-carboxylate] | 0.0398 to 0.316 | 25.1 to 158
COC(=O)C1CN(CCNc2ccc(Nc3nccc(Nc4ccnc(-c5cccc(C)n5)n4)n3)cc2)CCN1 (stereo not shown) [Compound 369, methyl 4-[2-[4-[[4-[[2-(6-methyl-2-pyridyl)pyrimidin-4-yl]amino]pyrimidin-2-yl]amino]anilino]ethyl] piperazine-2-carboxylate] | 0.398 to 3.16 | 25.1 to 158
Cc1cccc(-c2nccc(Nc3ccnc(Nc4ccc(CN5CCN(C(C)C)CC5)cc4)n3)n2)n1 [Compound 370, N2-[4-[(4-isopropylpiperazin-1-yl)methyl]phenyl]-N4-[2-(6-methyl-2-pyridyl)pyrimidin-4-yl]pyrimidine-2,4-diamine] | 0.0398 to 0.316 | 25.1 to 158
Cc1cccc(-c2nccc(Nc3ccnc(Nc4ccc(NS(=O)(=O)N(C)C)cc4)n3)n2)n1 [Compound 371, 4-[[2-[4-(dimethylsulfamoylamino)anilino]pyrimidin-4-yl]amino]-2-(6-methyl-2-pyridyl)pyrimidine] | 0.398 to 3.16 | 25.1 to 158
Cc1cccc(-c2nccc(Nc3ccnc(Nc4ccc(CN5CC6(CCOC6)C5)cc4)n3)n2)n1 [Compound 372, N4-[2-(6-methyl-2-pyridyl)pyrimidin-4-yl]-N2-[4-(6-oxa-2-azaspiro[3.4]octan-2-ylmethyl)phenyl]pyrimidine-2,4-diamine] | 0.0398 to 0.316 | 25.1 to 158
Cc1cccc(-c2nccc(Nc3ccnc(Nc4cnn(C5CCCNC5)c4)n3)n2)n1 (stereo not shown) [Compound 373, N4-[2-(6-methyl-2-pyridyl)pyrimidin-4-yl]-N2-[1-(3-piperidyl)pyrazol-4-yl]pyrimidine-2,4-diamine] | ≤ 0.0316 | 200 to 1260
Cc1cccc(-c2nccc(Nc3ccnc(Nc4ccc(C5CCCNC5)cc4)n3)n2)n1 (stereo not shown) [Compound 374, N4-[2-(6-methyl-2-pyridyl)pyrimidin-4-yl]-N2-[4-(3-piperidyl)phenyl]pyrimidine-2,4-diamine] | 0.0398 to 0.316 | 25.1 to 158
Cc1cccc(-c2nccc(Nc3ccnc(Nc4ccc(CN5C[C@@H]6C[C@H]5CN6)cc4)n3)n2)n1 [Compound 375, N2-[4-[[(1S,4S)-2,5-diazabicyclo[2.2.1]heptan-2-yl]methyl]phenyl]-N4-[2-(6-methyl-2-pyridyl)pyrimidin-4-yl]pyrimidine-2,4-diamine] | 0.0398 to 0.316 | 25.1 to 158
Cc1cccc(-c2nccc(Nc3ccnc(Nc4ccc(CN5C[C@H](C)NC[C@H]5C)cc4)n3)n2)n1 [Compound 376, N2-[4-[[(2R,5S)-2,5-dimethylpiperazin-1-yl]methyl]phenyl]-N4-[2-(6-methyl-2-pyridyl)pyrimidin-4-yl]pyrimidine-2,4-diamine] | 0.0398 to 0.316 | 25.1 to 158
Cc1cccc(-c2nccc(Nc3ccnc(Nc4ccc(CN5CCCNCC5)cc4)n3)n2)n1 [Compound 377, N2-[4-(1,4-diazepan-1-ylmethyl)phenyl]-N4-[2-(6-methyl-2-pyridyl)pyrimidin-4-yl]pyrimidine-2,4-diamine] | 0.0398 to 0.316 | 25.1 to 158
Cc1cccc(-c2nccc(Nc3ccnc(Nc4csc(C(=O)NCC5(CO)CNC5)c4)n3)n2)n1 [Compound 378, N-[[3-(hydroxymethyl)azetidin-3-yl]methyl]-4-[[4-[[2-(6-methyl-2-pyridyl)pyrimidin-4-yl]amino]pyrimidin-2-yl]amino]thiophene-2-carboxamide] | ≤ 0.0316 | 25.1 to 158
CNC1CCN(c2ccc(Nc3nccc(Nc4ccnc(-c5cc(O)ccc5C)n4)n3)cc2)CC1 [Compound 379, 4-methyl-3-[4-[[2-[4-[4-(methylamino)-1-piperidyl]anilino]pyrimidin-4-yl]amino]pyrimidin-2-yl]phenol] | 0.398 to 3.16 | 200 to 1260
Cc1cccc(-c2nccc(Nc3ccnc(Nc4ccc(N5CCN(CC6CNC6)CC5)cc4)n3)n2)n1 [Compound 380, N2-[4-[4-(azetidin-3-ylmethyl)piperazin-1-yl]phenyl]-N4-[2-(6-methyl-2-pyridyl)pyrimidin-4-yl]pyrimidine-2,4-diamine] | 0.0398 to 0.316 | 25.1 to 158
Cc1cccc(-c2nccc(Nc3ccnc(Nc4ccc(Cl)c(CN5C[C@@H](C)N[C@@H](C)C5)c4)n3)n2)n1 [Compound 381, N2-[4-chloro-3-[[rac-(3R,5S)-3,5-dimethylpiperazin-1-yl]methyl]phenyl]-N4-[2-(6-methyl-2-pyridyl)pyrimidin-4-yl]pyrimidine-2,4-diamine] | 0.0398 to 0.316 | 25.1 to 158
Cc1cccc(-c2nccc(Nc3ccnc(Nc4ccc(CN5CCCC(C(=O)OC6CCNCC6)C5)cc4)n3)n2)n1 (stereo not shown) [Compound 383, 4-piperidyl 1-[[4-[[4-[[2-(6-methyl-2-pyridyl)pyrimidin-4-yl]amino]pyrimidin-2-yl]amino]phenyl]methyl] piperidine-3-carboxylate] | 0.0398 to 0.316 | 25.1 to 158
Cc1cccc(-c2nccc(Nc3ccnc(Nc4ccc(F)c(CN5C6CCC5CNC6)c4)n3)n2)n1 [Compound 384, N2-[3-(3,8-diazabicyclo[3.2.1]octan-8-ylmethyl)-4-fluoro-phenyl]-N4-[2-(6-methyl-2-pyridyl)pyrimidin-4-yl]pyrimidine-2,4-diamine] | 0.0398 to 0.316 | 25.1 to 158
Cc1cccc(-c2nccc(Nc3ccnc(Nc4cccc(NC(=O)CC5CNC5)c4)n3)n2)n1 [Compound 385, 2-(azetidin-3-yl)-N-[3-[[4-[[2-(6-methyl-2-pyridyl)pyrimidin-4-yl]amino]pyrimidin-2-yl]amino]phenyl]acetamide] | ≤ 0.0316 | 25.1 to 158
Cc1cccc(-c2nccc(Nc3ccnc(Nc4csc(C(=O)O)c4)n3)n2)n1 [Compound 386, 4-[[4-[[2-(6-methyl-2-pyridyl)pyrimidin-4-yl]amino]pyrimidin-2-yl]amino]thiophene-2-carboxylic acid] | 0.398 to 3.16 | 1580 to 10000
Cc1cccc(-c2nccc(Nc3ccnc(Nc4ccc(C(=O)NC5CNC5)cc4)n3)n2)n1 [Compound 387, N-(azetidin-3-yl)-4-[[4-[[2-(6-methyl-2-pyridyl)pyrimidin-4-yl]amino]pyrimidin-2-yl]amino]benzamide] | 0.0398 to 0.316 | ≤ 20
Cc1cccc(-c2nccc(Nc3ccnc(Nc4ccc(CO)cc4)n3)n2)n1 [Compound 388, [4-[[4-[[2-(6-methyl-2-pyridyl)pyrimidin-4-yl]amino]pyrimidin-2-yl]amino]phenyl]methanol] | 0.398 to 3.16 | ≤ 20
Cc1cccc(-c2nccc(Nc3ccnc(Nc4cc(C(=O)N5CCNCC5)cs4)n3)n2)n1 [Compound 389, [5-[[4-[[2-(6-methyl-2-pyridyl)pyrimidin-4-yl]amino]pyrimidin-2-yl]amino]-3-thienyl]-piperazin-1-yl-methanone] | 0.0398 to 0.316 | 25.1 to 158
Cc1cccc(-c2nccc(Nc3ccnc(Nc4cnn(CCC5CCNCC5)c4)n3)n2)n1 [Compound 390, N4-[2-(6-methyl-2-pyridyl)pyrimidin-4-yl]-N2-[1-[2-(4-piperidyl)ethyl]pyrazol-4-yl]pyrimidine-2,4-diamine] | 0.0398 to 0.316 | 200 to 1260
Cc1cccc(-c2nccc(Nc3ccnc(Nc4nc(CN5C[C@@H](C)N[C@@H](C)C5)cs4)n3)n2)n1 [Compound 391, N4-[2-(6-methyl-2-pyridyl)pyrimidin-4-yl]-N2-[4-[[rac-(3R,5S)-3,5-dimethylpiperazin-1-yl]methyl]thiazol-2-yl]pyrimidine-2,4-diamine] | 0.398 to 3.16 | 25.1 to 158
Cc1cccc(-c2nccc(Nc3ccnc(Nc4ccc(CN5CC(OCCO)C5)cc4)n3)n2)n1 [Compound 392, 2-[1-[[4-[[4-[[2-(6-methyl-2-pyridyl)pyrimidin-4-yl]amino]pyrimidin-2-yl]amino]phenyl]methyl]azetidin-3-yl]oxyethanol] | 0.0398 to 0.316 | 25.1 to 158
Cc1cccc(-c2nccc(Nc3ccnc(Nc4ccc(N5CCC(N(C)CC(C)C)CC5)cc4)n3)n2)n1 [Compound 393, N2-[4-[4-[isobutyl(methyl)amino]-1-piperidyl]phenyl]-N4-[2-(6-methyl-2-pyridyl)pyrimidin-4-yl]pyrimidine-2,4-diamine] | 0.0398 to 0.316 | 25.1 to 158
Cc1cccc(-c2nccc(Nc3ccnc(Nc4ccc(N5CCC(N(C)C)CC5)cc4)n3)n2)n1 [Compound 394, N2-[4-[4-(dimethylamino)-1-piperidyl]phenyl]-N4-[2-(6-methyl-2-pyridyl)pyrimidin-4-yl]pyrimidine-2,4-diamine] | 0.0398 to 0.316 | 200 to 1260

From patent US20230399312A1, “SUBSTITUTED PYRIMIDINES AND METHODS OF USE” (THERAVANCE BIOPHARMA R&D IP, LLC, priority 2020, published 2023)
